Read-outs that look alike come from different tables or passages of the source.

The values below come from PMC4298801, “Structure-Guided Design Affirms Inhibitors of Hepatitis C Virus p7 as a Viable Class of Antivirals Targeting Virion Release” (Hepatology (Baltimore, Md.), 2013).

One experiment relates to Leu20Phe J4/JFH-1. The experiment can be described thus: HCV spread following infection at low M.O.I., NS5A foci counted. Conditions: low multiplicity infection. The experiment is classed as cell-based, hepatitis C virus. From the text:
Figure 5 Specificity of novel p7 inhibitors. Screening lead hits LDS19 and 21 were examined for specificity against wild-type and rimantadine resistant HCV. (A) Titration of LDS 19 and 21 against Huh7 cells transfected with both wild-type (diamonds) and Leu20Phe (squares) J4/JFH-1 RNA, showing effects on released infectivity. Graph plots the average released titers from duplicate wells from at least two separate experiments, normalized to the 100% untreated value. Error bars represent normalized percent error of the mean between experiments (*P < 0.05). (B) Effects of p7 inhibitors on HCV spread following infection at low M.O.I (0.0001 FFU/cell). Huh7 cells were infected in triplicate overnight with wild-type (black) and Leu20Phe (white) J4/JFH-1 and then media replaced after extensive washing with that containing inhibitors. Fluorescent NS5A foci were counted at 72 hours postinfection. […] Error bars represent normalized percent error of the mean (*P < 0.05, **P < 0.01). […] Results are the average of two separate experiments with duplicate wells and error bars are normalized percent error of the mean between experiments.

The subject of a further experiment is J4/JFH-1 (GT1b/2a HCV). The experiment can be described thus: Inhibition of infectious virus release from Huh7 cells transfected with J4/JFH-1 RNA (focus forming assay). In kind it is cell-based, hepatitis C virus. Here is the method:
(§1) Figure 4 Selection of novel, structurally diverse p7 inhibitors. In silico screening using p7 channel models as a template derived a range of Lipinski-compliant potential inhibitors of the p7 channel complex and the top 30 were selected for testing as proof-of-principle. (A) Liposome dye release assay showing endpoint values compounds with activity against wild-type p7 at 250 nM that were subsequently selected for cell culture studies. Results are the average of two separate experiments with each condition in duplicate and are expressed as a percentage of the untreated protein value following baseline subtraction (liposomes alone). […] (B) Inhibition of infectious virus release from Huh7 cells transfected with J4/JFH-1 RNA using novel compounds (400 nM). Selected compounds show minimal effect on intracellular infectivity, replicon replication and have no toxic effects (see Supporting Fig. 5 and Table 2). […] (C) Structures of selected initial hit compounds. (D) Predicted docking poses of rimantadine novel compounds at the allosteric binding site (calculated in Glide, Schrodinger). Key interacting residues are highlighted.
Figure 6 Effects of novel inhibitors against multiple HCV genotypes. […] Results are representative of two independent experiments and are the average of triplicate wells. Error bars represent standard deviations. […]

In the next experiment the test system is J4/JFH-1(L20F). Particulars: subcytotoxic concentrations; cited from earlier work.
The target of another experiment is T1, genotype 1b p7 (Hepatitis C virus genotype 1b, UniProt O92972).
T1 construct: selected for testing against genotype 1b p7 in vitro; made in house; host or cells: Escherichia coli BL21(DE3)
Nature of the experiment: Liposome carboxyfluorescein dye release assay for p7 channel activity. In kind it is biochemical. Conditions: genotype 1b p7 in vitro, prototype control, read-out: median inhibitory concentration [IC50]. Here is the method: Liposome carboxyfluorescein release assays were conducted as described previously.[13],[15],[28]
as §1

T1 sequence (O92972 747-809): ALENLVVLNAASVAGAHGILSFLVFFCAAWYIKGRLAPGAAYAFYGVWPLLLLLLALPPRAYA

For the compound `CC(N)C12CC3CC(CC(C3)C1)C2` (centres unmarked) [rimantadine], in the experiment with Leu20Phe J4/JFH-1, the “sensitivity of Leu20Phe HCV spread to compound” value is “insensitive”. For the same compound, the IC50 was approximately 40 µM in the experiment on J4/JFH-1 (GT1b/2a HCV) (Hepatitis C virus, GT1B, Huh-7, read-out: ∼IC50, infectious virus release) and approximately 40 µM on genotype 1b p7. Moreover, the “effect on Leu20Phe infectious virion production” value with J4/JFH-1(L20F) is “ineffective”.

With `CCCCCCCCCN1C[C@H](O)[C@@H](O)[C@H](O)[C@H]1CO` [NN-DNJ], in the experiment on J4/JFH-1 (GT1b/2a HCV) (J4/JFH-1 RNA transfected Huh7, prototype shown for comparison, read-out: ∼IC50, infectious virus release), the IC50 is approximately 20 µM.
